Assay results: patent US8865909B2, “Anti-biofilm agents” (Yissum Research Development Company of the Hebrew …, priority 2008, dated 2014)

Legend:
Vero cells = Vero cells detachment assay (96-well polystyrene plate, XTT); assay type: cell-based
Description: Vero cells (0.1 ml, 1.6×10^6 cells/ml) were plated in each well of flat 96-wells polystyrene plate (Nunc), and incubated overnight at 37° C. and 5% CO2. The cells were then incubated with various concentrations of the exemplary tested ABF agent TZD10. At the indicated time intervals, the cells were washed and re-suspended in fresh medium. XTT (2,3-bis-(2-methoxy-4-nitro-5-sulfophenyl)-2H-tetrazolium-5-carboxanilide) analysis was performed to determine the viability of the attached cells.

[1] = tested on: V. harveyi wild-type strain (BB120) matured biofilms; assay: Biofilm disruption by confocal scanning laser microscopy; assay type: cell-based; details: 2, 20, 200 μM (lower than MIC), 18 hours
Description: The biofilm eradication concentration (BEC) for exemplary ABF agents according to embodiments of the present invention was measured as the effect of the tested agent on mature and fully formed biofilm. The effect of TZD10, an exemplary ABF agent according to embodiments of the present invention, on the depth and the density of the biofilm was determined using fluorescent stains analyzed by computer image analysis using confocal scanning laser microscopy (CLSM). Briefly, biofilms were allowed to form in sterile micrtiture dishes as described hereinabove. After washing the formed biofilm, fresh AB medium and an appropriate medium containing TZD10 were added and incubated for additional 18 hours. Bacteria in biofilm were stained with fluorescent dyes to detect the biofilm. The stained biofilms were examined with a Zeiss LSM 410 confocal laser scanning system attached to a Zeiss Axiovert inverted microscope fitted with a 40×/1.3 Plan-Neofluar lens. In each experiment, exciting laser intensity, background level, contrast and electronic zoom size were maintained at the same level. At least 3 random fields for each experiment were chosen and scored from each sample. Biofilm structure was analyzed as a series of horizontal opto-digital sections. […]

CCCCCCCCC/C=C1\SC(=O)NC1=O [TZD10, (Z)-5-decylidenethiazolidine-2,4-dione]
cell viability after detachment assay (Vero cells; 50 μg/ml, overnight incubation): most of the cells are still viable
cell detachment (Vero cells; 100 μg/ml, 30 minutes): most of the cells were detached
cell detachment (Vero cells; 200 μg/ml, 5 minutes): most of the cells were detached
biofilm disruption [1]: dose response effect of biofilm disruption
